From patent publication US20110319431A1, “Bis Aromatic Compounds for Use as LTC4 Synthase Inhibitors” (BIOLIPOX AB, priority 2009, published 2011) come the findings set out here.

The target of the test is T1, Recombinant human LTC4 synthase (Homo sapiens, UniProt Q16873).
T1 construct: made in house; host or cells: Pichia pastoris
T1 sequence (Q16873 1-150): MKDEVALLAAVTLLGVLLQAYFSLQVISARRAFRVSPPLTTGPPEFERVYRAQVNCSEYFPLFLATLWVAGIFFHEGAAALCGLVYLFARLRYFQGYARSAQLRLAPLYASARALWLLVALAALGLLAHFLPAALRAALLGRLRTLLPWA
As to the kind of experiment: In vitro LTC4 synthase assay (LTA4 to LTC4, HTRF detection). The format is biochemical. Conditions: for inhibition at 10 µM: 5 min, total concentration of title compounds in the assay 10 μM. On the procedure:
In the assay, LTC4 synthase catalyses the reaction where the substrate LTA4 is converted to LTC4. Recombinant human LTC4 synthase is expressed in Piccia pastoralis and the purified enzyme is dissolved in 25 mM tris-buffer pH 7.8 supplemented with 0.1 mM glutathione (GSH) and stored at −80° C. The assay is performed in phosphate buffered saline (PBS) pH 7.4 and 5 mM GSH in 384-well plates.
The following is added chronologically to each well:
1. 48 μL LTC4 synthase in PBS with 5 mM GSH. The total protein concentration in this solution is 0.5 μg/mL. 2. 1 μL inhibitor in DMSO (final concentration 10 μM). 3. Incubation of the plate at room temperature for 10 min. 4. 1 μL LTA4 (final concentration 2.5 μM). 5. Incubation of the plate at room temperature for 5 min. 6. 10 μL of the incubation mixture is analysed using homogenous time resolved fluorescent (HTRF) detection.

The mark [1] stands for this setting: title compounds of the Examples.
Where [2] appears, read: Table 4, title compounds of Example 4.

As usually defined, the IC50 is the midpoint of a concentration-inhibition curve. In general, inhibition refers to the change of the read-out against control, counted positive when it falls.

With `O=C(c1ccc(Sc2ccc(F)c(F)c2)c(C(=O)O)c1)c1ccc(OCc2cccc(Cl)c2)cn1` [Example 2:21, 5-[5-(3-Chlorobenzyloxy)pyridine-2-carbonyl]-2-(3,4-difluorophenyl-sulfanyl)benzoic acid], the half-maximal inhibitory concentration (IC50) under setting [1] turned out to be 119 nM. For `CN(c1ccc(Cl)cc1)c1ccc(C(=O)c2cc(Sc3cccc(Cl)c3)cc(C(=O)O)c2)cc1` [4:6, 3-{4-[(4-Chlorophenyl)(methyl)amino]benzoyl}-5-(3-chlorophenyl-sulfanyl)benzoic acid], the IC50 under setting [2] turned out to be 165 nM. Consider `CCCCCC[S+]([O-])c1cc(C(=O)O)cc(C(=O)c2ccc(N(C)c3ccc(Cl)cc3)cn2)c1` (stereo not shown) [Example 4:2, 3-{5-[(4-Chlorophenyl)(methyl)amino]picolinoyl}-5-(1-hexylsulfinyl)-benzoic acid], for which the half-inhibitory concentration (IC50) under setting [2] was 404 nM.

Regarding `CN(c1ccc(Cl)cc1)c1ccc(C(=O)c2ccc(Sc3cccc(Cl)c3)c(C(=O)O)c2)cc1` [Example 2:2, 5-{4-[(4-Chlorophenyl)(methyl)amino]benzoyl}-2-(3-chlorophenylsulfanyl)-benzoic acid], the inhibition at 10 µM was 98%. Also, the concentration for half-maximal inhibition (IC50) under setting [1] worked out at 73 nM. For `O=C(c1ccc(Sc2ccc(F)cc2)c(C(=O)O)c1)c1ccc(N(CC2CC2)c2ccc(Cl)cc2)cn1` [2:11, 5-{5-[(4-Chlorophenyl)cyclopropylmethylamino]pyridine-2-carbonyl}-2-(4-fluorophenylsulfanyl)benzoic acid], the half-inhibitory concentration (IC50) under setting [1] came out at 46 nM. Regarding `CN(c1ccc(Cl)cc1)c1ccc(C(=O)c2ccc(Sc3ccc(F)c(F)c3)c(C(=O)O)c2)cc1` [2:3, 5-{4-[(4-Chlorophenyl)(methyl)amino]benzoyl}-2-(3,4-difluorophenyl-sulfanyl)benzoic acid], the inhibition at 10 µM was determined as 96%. In addition, the half-inhibitory concentration (IC50) under setting [1] was 51 nM.

On to `COc1cccc(Sc2ccc(C(=O)c3ccc(N(CC4CC4)c4ccc(Cl)cc4)cn3)cc2C(=O)O)c1` [2:19, 5-{5-[(4-Chlorophenyl)cyclopropylmethylamino]pyridine-2-carbonyl}-2-(3-methoxy-phenylsulfanyl)-benzoic acid], for which, under setting [1], the IC50 came to 81 nM. The same measure, in the same setting: next, `O=C(c1ccc([S+]([O-])c2ccc(C(F)(F)F)cc2)c(C(=O)O)c1)c1ccc(N(CC2CC2)c2ccc(Cl)cc2)cn1` (stereo not shown) [Example 1:14, 5-{5-[(4-Chlorophenyl)cyclopropylmethylamino]pyridine-2-carbonyl}-2-(4-tri-fluoromethylphenylsulfinyl)benzoic acid]: 48 nM; `CN(c1ccc(Cl)cc1)c1ccc(C(=O)c2ccc(Sc3ccc(F)c(F)c3)c(C(=O)O)c2)nc1` [2:6]: 47 nM. On to `CN(c1ccc(Cl)cc1)c1ccc(C(=O)c2ccc([S+]([O-])c3ccc(F)c(F)c3)c(C(=O)O)c2)nc1` (stereo not shown) [Example 1:13, 5-{5-[(4-Chlorophenyl)methylamino]pyridine-2-carbonyl}-2-(3,4-difluorophenyl-sulfinyl)benzoic acid], for which the inhibition at 10 µM is 99%. The IC50 under setting [1] was 87 nM. As for `CCCCCC[S+]([O-])c1ccc(C(=O)c2ncc(N(C)c3ccc(Cl)cc3)cn2)cc1C(=O)O` (stereo not shown) [Example 1:21, 5-(5-((4-Chlorophenyl)(methyl)amino)pyrimidine-2-carbonyl)-2-(1-hexylsulfinyl)-benzoic acid], the inhibition at 10 µM came to 99%. The concentration for half-maximal inhibition (IC50) under setting [1] was determined as 54 nM.

For the molecule `CN(c1ccc(Cl)cc1)c1ccc(C(=O)c2cc(C(=O)O)cc([S+]([O-])c3ccc(F)c(F)c3)c2)cc1` (stereo not shown) [Example 1:19, 3-{4-[(4-Chlorophenyl)(methyl)amino]benzoyl}-5-(3,4-difluorophenylsulfinyl)-benzoic acid], the IC50 under setting [1] is 212 nM. The same measure, in the same setting: next, `CCCCCCSc1ccc(C(=O)c2ccc(N(CC3CC3)c3ccc(Cl)cc3)cn2)cc1C(=O)O` [2:15, 5-{5-[(4-Chlorophenyl)cyclopropylmethylamino]pyridine-2-carbonyl}-2-(1-hexylsulfanyl)benzoic acid]: 96 nM; `CCCCCCSc1ccc(C(=O)c2ccc(N(C)c3ccc(Cl)cc3)cn2)cc1C(=O)O` [2:5]: 129 nM. Consider `O=C(c1ccc([S+]([O-])c2cccc(C(F)(F)F)c2)c(C(=O)O)c1)c1ccc(N(CC2CC2)c2ccc(Cl)cc2)cn1` (stereo not shown) [1:15, 5-{5-[(4-Chlorophenyl)cyclopropylmethylamino]pyridine-2-carbonyl}-2-(3-tri-fluoromethylphenylsulfinyl)benzoic acid], for which the IC50 under setting [1] came out at 28 nM. As to `O=C(c1ccc(Sc2cccc(C(F)(F)F)c2)c(C(=O)O)c1)c1ccc(N(CC2CC2)c2ccc(Cl)cc2)cn1` [2:12, 5-{5-[(4-Chlorophenyl)cyclopropylmethylamino]pyridine-2-carbonyl}-2-(3-trifluoromethylphenylsulfanyl)benzoic acid], the IC50 under setting [1] worked out at 76 nM. Still for that read-out and setting: the result for `O=C(c1ccc(Sc2ccc(F)c(F)c2)c(C(=O)O)c1)c1ccc(N(CC2CC2)c2ccc(Cl)cc2)cn1` [2:16, 5-{5-[(4-Chlorophenyl)cyclopropylmethylamino]pyridine-2-carbonyl}-2-(3,4-difluorophenylsulfanyl)benzoic acid] reads 41 nM.

On to `COc1cccc(Sc2cc(C(=O)O)cc(C(=O)c3ccc(N(C)c4ccc(Cl)cc4)cc3)c2)c1` [4:5, 3-{4-[(4-Chlorophenyl)(methyl)amino]benzoyl}-5-(3-methoxyphenyl-sulfanyl)benzoic acid], for which the 50% inhibitory concentration (IC50) under setting [2] was 143 nM. The same measure, in the same setting: next, `CN(c1ccc(Cl)cc1)c1ccc(C(=O)c2cc(Sc3ccccc3)cc(C(=O)O)c2)cc1` [4:10, 3-{4-[(4-Chlorophenyl)(methyl)amino]benzoyl}-5-(phenysulfanyl)benzoic acid]: 175 nM. As for `CCCCCC[S+]([O-])c1ccc(C(=O)c2ccc(N(C)c3ccc(Cl)cc3)cc2)cc1C(=O)O` (stereo not shown) [Example 1:1, 5-{4-[(4-Chlorophenyl)(methyl)amino]benzoyl}-2-(1-hexylsulfinyl)benzoic acid], the inhibition at 10 µM came out at 100%. Also, the 50% inhibitory concentration (IC50) under setting [1] amounted to 56 nM.

Turning to `O=C(c1ccc(Sc2ccccc2)c(C(=O)O)c1)c1ccc(N(CC2CC2)c2ccc(Cl)cc2)cn1` [2:14, 5-{5-[(4-Chlorophenyl)cyclopropylmethylamino]pyridine-2-carbonyl}-2-phenylsulfanylbenzoic acid], under setting [1], the concentration for half-maximal inhibition (IC50) was 47 nM. Still for that read-out and setting: the result for `CCCCCC[S+]([O-])c1cc(C(=O)O)cc(C(=O)c2ccc(N(C)c3ccc(Cl)cc3)cn2)c1` (stereo not shown) [Example 1:20, 3-{5-[(4-Chlorophenyl)methylamino]pyridine-2-carbonyl}-5-(1-hexylsulfinyl)-benzoic acid] reads 404 nM. On to `CCCCCCSc1ccc(C(=O)c2ccc(N(C)c3ccc(Cl)cc3)cc2)cc1C(=O)O` [Example 2:1, 5-{4-[(4-Chlorophenyl)(methyl)amino]benzoyl}-2-(1-hexylsulfanyl)benzoic acid], for which the inhibition at 10 µM amounted to 99%. Also, the IC50 under setting [1] worked out at 172 nM. Turning to `CN(c1ccc(Cl)cc1)c1ccc(C(=O)c2cc(C(=O)O)cc([S+]([O-])c3ccc(F)c(F)c3)c2)cc1` (stereo not shown) [Example 4:1, 3-{4-[(4-Chlorophenyl)(methyl)amino]benzoyl}-5-(3,4-difluorophenylsulfinyl)-benzoic acid], the IC50 (value printed in the text of Example 4:1) is 212 nM.

For the molecule `CCCCCC[S+]([O-])c1ccc(C(=O)c2ccc(N(C)c3ccc(Cl)cc3)cn2)cc1C(=O)O` (stereo not shown) [Example 1:22, 5-{5-[(4-Chlorophenyl)methylamino]pyridine-2-carbonyl}-2-(1-hexylsulfinyl)-benzoic acid], the half-inhibitory concentration (IC50) under setting [1] is 41 nM.
